Read-outs that look alike come from different tables or passages of the source.
How the values were obtained:
Assay type in all cases: in vivo
[1] = Comparative plasma PK of Int 1-4 versus gemcitabine in mouse (study a); conditions: plasma, CD-1 mice; for MRT last: read-out: MRT0-last
[2] = Comparative plasma PK of Compound 1 versus Int 1-4 in male CD-1 mice (study b); conditions: male, CD-1, mouse, iv
Description: Objectives: to compare the plasma pharmacokinetics and stability of Compound 1 with its non-phosphorylated SMDC analog (Int 1-4) and in plasma following a single intravenous infusion administration of Compound 1 at 11.6 mg/kg and 23.2 mg/kg with Int 1-4 (formulation F1 & F2) at 10.0 mg/kg in male CD-1 mice
PK measurements: compare PK parameters C0, CL, Vdss, Cmax, tmax, t1/2, AUC(0-t), AUC(0-inf), MRT(0-t), MRT(0-inf) for Compound 1 and Int 1-4

[3] = Int 1-4 plasma PK in the male cynomolgus monkey (study f); conditions: for C0: read-out: C0; for MRT inf: read-out: MRT0-inf; for MRT last: read-out: MRT0-last; for Vd: read-out: Vdss
Description: Objectives: to compare the plasma pharmacokinetics and stability of Int 1-4 in plasma following single intravenous infusion administration of Int 1-4 at 5 mg/kg and 10 mg/kg in the male cynomolgus monkey
PK measurements: compare PK parameters C0, CL, Vdss, Cmax, tmax, t, AUC(0-t), AUC(0-inf), MRT(0-t), MRT(0-inf) for Int 1-4

[4] = mouse, after iv gemcitabine 5.29 mg/kg
[5] = after iv gemcitabine 5.29 mg/kg
[6] = 10 mg/kg, after iv Int 1-4 10.0 mg/kg, Formulation 1
[7] = 10 mg/kg, after iv Int 1-4 10.0 mg/kg, Formulation 2
[8] = 11.6 mg/kg, after iv Compound 1 11.6 mg/kg
[9] = 23.2 mg/kg, after iv Compound 1 23.2 mg/kg
[10] = after iv Int 1-4 5 mg/kg (study f)
[11] = after iv Int 1-4 10 mg/kg (study f)

Nc1ccn([C@@H]2O[C@H](CO)[C@@H](O)C2(F)F)c(=O)n1 [Gemcitabine, gemcitabine]
MRT last ([1]; mouse, after iv Int 1-4 9.4 mg/kg): 0.875 h | Tmax ([1]; mouse, after iv Int 1-4 9.4 mg/kg, read-out: Tmax): 8.34 min | C0 [1, 4]: 6.43 µg/mL | clearance [1, 4]: 3.54 L/h/kg | half-life [1, 4]: ~0.9 h | MRT inf ([1]; mouse, after iv gemcitabine 5.29 mg/kg, read-out: MRT0-inf): 0.541 h | MRT last [1, 4]: 0.503 h | Vd ([1]; mouse, after iv gemcitabine 5.29 mg/kg, read-out: Vdss): 1.84 L/kg | AUC0-inf/AUC0-last ([1]; after iv Int 1-4 9.4 mg/kg): 116% | AUC0-inf/AUC0-last [1, 5]: 101% | AUC0-last [1, 5]: 1.383 µg·h/mL | AUC(0-inf) [1, 5]: 1.393 µg·h/mL | T1/2 [1, 5]: 0.868 h | AUC(0-t) [2, 6]: 0.0986 µg·h/mL | half-life [2, 6]: 1.62 h | AUC(0-inf) ([2]; 10 mg/kg, after iv Int 1-4 10.0 mg/kg, Formulation 1, read-out: AUC0-inf): 0.12 µg·h/mL | Cmax ([2]; 10 mg/kg, after iv Int 1-4 10.0 mg/kg, Formulation 1, read-out: Cmax): 0.107 µg/mL | MRT inf ([2]; 10 mg/kg, after iv Int 1-4 10.0 mg/kg, Formulation 1, read-out: MRT0-inf): 1.98 h | MRT last ([2]; 10 mg/kg, after iv Int 1-4 10.0 mg/kg, Formulation 1, read-out: MRT0-last): 1.15 h | Tmax ([2]; 10 mg/kg, after iv Int 1-4 10.0 mg/kg, Formulation 1, read-out: Tmax): 3.67 min | AUC(0-t) [2, 7]: 0.0851 µg·h/mL | half-life [2, 7]: 1.66 h | AUC(0-inf) ([2]; 10 mg/kg, after iv Int 1-4 10.0 mg/kg, Formulation 2, read-out: AUC0-inf): 0.102 µg·h/mL | Cmax ([2]; 10 mg/kg, after iv Int 1-4 10.0 mg/kg, Formulation 2, read-out: Cmax): 0.0936 µg/mL | MRT inf ([2]; 10 mg/kg, after iv Int 1-4 10.0 mg/kg, Formulation 2, read-out: MRT0-inf): 2.1 h | MRT last ([2]; 10 mg/kg, after iv Int 1-4 10.0 mg/kg, Formulation 2, read-out: MRT0-last): 1.25 h | Tmax ([2]; 10 mg/kg, after iv Int 1-4 10.0 mg/kg, Formulation 2, read-out: Tmax): 2 min | AUC(0-t) [2, 8]: 0.0979 µg·h/mL | half-life [2, 8]: 1.04 h | AUC(0-inf) ([2]; 11.6 mg/kg, after iv Compound 1 11.6 mg/kg, read-out: AUC0-inf): 0.112 µg·h/mL | Cmax ([2]; 11.6 mg/kg, after iv Compound 1 11.6 mg/kg, read-out: Cmax): 0.152 µg/mL | MRT inf ([2]; 11.6 mg/kg, after iv Compound 1 11.6 mg/kg, read-out: MRT0-inf): 1.41 h | MRT last ([2]; 11.6 mg/kg, after iv Compound 1 11.6 mg/kg, read-out: MRT0-last): 1.01 h | Tmax ([2]; 11.6 mg/kg, after iv Compound 1 11.6 mg/kg, read-out: Tmax): 1.5 min | AUC(0-t) [2, 9]: 0.202 µg·h/mL | half-life [2, 9]: 1.03 h | AUC(0-inf) ([2]; 23.2 mg/kg, after iv Compound 1 23.2 mg/kg, read-out: AUC0-inf): 0.218 µg·h/mL | Cmax ([2]; 23.2 mg/kg, after iv Compound 1 23.2 mg/kg, read-out: Cmax): 0.222 µg/mL | MRT inf ([2]; 23.2 mg/kg, after iv Compound 1 23.2 mg/kg, read-out: MRT0-inf): 1.4 h | MRT last ([2]; 23.2 mg/kg, after iv Compound 1 23.2 mg/kg, read-out: MRT0-last): 1.11 h | Tmax ([2]; 23.2 mg/kg, after iv Compound 1 23.2 mg/kg, read-out: Tmax): 2 min | clearance [3, 10]: 0.223 L/h/kg | half-life [3, 10]: 2.82 min | C0 [3, 10]: 0.0205 µg/mL | MRT inf [3, 10]: 20.5 h | MRT last [3, 10]: 0.19 h | Vd [3, 10]: 0.11 L/kg | clearance [3, 11]: 0.93 L/h/kg | half-life [3, 11]: 4.8 min | C0 [3, 11]: 0.0534 µg/mL | MRT inf [3, 11]: 53.4 h | MRT last [3, 11]: 0.3 h | Vd [3, 11]: 0.19 L/kg
